pIC50: −log10 of the molar value. “And” between values parts separate entries of the source, which are not always exact repeats. Equal values may be shown once.
Assays:
[1] = test system: T1, UGT enzymes of human liver microsomes; experiment: Inhibition of 7-HFC glucuronidation in human liver microsomes; type: biochemical; conditions: for % of control metabolism (SD, n = 3), 7-HFC glucuronidation: human liver microsomes 100 μg/ml
T1 construct: percentage of control metabolism, 7-HFC glucuronidation; percentage of control metabolism, 7-HFC glucuronidation

[2] = test system: T2, UGT enzymes of human liver microsomes; experiment: Inhibition of estradiol (E2) glucuronidation in human liver microsomes; type: biochemical; conditions: liver 032101, E2 50 μM
T2 construct: residual metabolism (% of control), E2-17-β-D-glucuronide; other: liver 032101; residual metabolism (% of control), E2-17-β-D-glucuronide
Excerpt: (§1) Compounds were eluted using a binary solvent gradient system where solvent A was dilute phosphoric acid (pH 3) and solvent B was 80:20 acetonitrile-methanol. […] Detection was at 280 nm.

UGT1A1 = target: T3, UGT1A1 (Homo sapiens, UniProt P22309); experiment: in vitro
T3 sequence (P22309 26-533): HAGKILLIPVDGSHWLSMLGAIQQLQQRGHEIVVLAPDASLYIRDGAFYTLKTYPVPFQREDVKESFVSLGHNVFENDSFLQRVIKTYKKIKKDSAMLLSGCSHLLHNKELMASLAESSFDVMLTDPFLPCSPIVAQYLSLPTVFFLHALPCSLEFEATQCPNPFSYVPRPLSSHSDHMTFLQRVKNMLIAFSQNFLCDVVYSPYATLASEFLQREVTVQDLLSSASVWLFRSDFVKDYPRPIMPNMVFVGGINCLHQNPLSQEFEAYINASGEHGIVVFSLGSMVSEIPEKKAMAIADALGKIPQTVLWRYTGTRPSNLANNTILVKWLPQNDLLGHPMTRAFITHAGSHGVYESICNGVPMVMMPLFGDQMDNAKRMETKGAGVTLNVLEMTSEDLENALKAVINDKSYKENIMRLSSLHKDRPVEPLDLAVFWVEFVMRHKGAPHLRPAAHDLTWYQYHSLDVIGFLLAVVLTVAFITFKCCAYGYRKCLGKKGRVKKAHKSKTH
Protocol: (§2) Compounds were eluted using a binary solvent gradient system. Solvent A was water brought to pH 8 with NH4OH. Solvent B was methanol. Solvent flow rate was 1 ml/min and the column temperature was maintained at 50° C. Detection was at 280 nm. […] The system was then returned to the initial conditions and equilibrated for 3 min.

UGT1A10 = target: T4, UGT1A10 (Homo sapiens, UniProt Q9HAW8); experiment: in vitro; conditions: pH 7.5, % of control metabolism
T4 sequence (Q9HAW8 26-530): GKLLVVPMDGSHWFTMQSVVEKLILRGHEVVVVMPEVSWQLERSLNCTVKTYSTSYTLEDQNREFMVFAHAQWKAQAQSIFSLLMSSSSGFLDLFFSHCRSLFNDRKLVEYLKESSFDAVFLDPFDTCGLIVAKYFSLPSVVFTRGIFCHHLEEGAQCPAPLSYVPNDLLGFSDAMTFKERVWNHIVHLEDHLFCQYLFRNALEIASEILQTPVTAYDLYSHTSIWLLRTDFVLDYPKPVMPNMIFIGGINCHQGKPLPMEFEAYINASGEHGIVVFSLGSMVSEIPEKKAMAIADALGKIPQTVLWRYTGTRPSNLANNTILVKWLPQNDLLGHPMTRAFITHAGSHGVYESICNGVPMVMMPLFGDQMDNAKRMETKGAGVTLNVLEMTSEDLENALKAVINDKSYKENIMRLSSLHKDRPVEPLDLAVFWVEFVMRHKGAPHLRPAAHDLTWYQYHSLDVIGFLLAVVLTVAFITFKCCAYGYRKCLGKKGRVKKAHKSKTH
Protocol: as §2

UGT1A3 = target: T5, UGT1A3 (Homo sapiens, UniProt P35503); experiment: Inhibition of raloxifene glucuronidation by recombinant UGT1A3 Supersomes; conditions: for activity at 15 min, 10 µM / activity at 15 min, 25 µM / activity at 15 min, 50 µM: human; for activity at 15 min, 10 µM: inhibitor 10 μM; for activity at 15 min, 25 µM: inhibitor 25 μM; for activity at 15 min, 50 µM: inhibitor 50 μM
T5 sequence (P35503 29-534): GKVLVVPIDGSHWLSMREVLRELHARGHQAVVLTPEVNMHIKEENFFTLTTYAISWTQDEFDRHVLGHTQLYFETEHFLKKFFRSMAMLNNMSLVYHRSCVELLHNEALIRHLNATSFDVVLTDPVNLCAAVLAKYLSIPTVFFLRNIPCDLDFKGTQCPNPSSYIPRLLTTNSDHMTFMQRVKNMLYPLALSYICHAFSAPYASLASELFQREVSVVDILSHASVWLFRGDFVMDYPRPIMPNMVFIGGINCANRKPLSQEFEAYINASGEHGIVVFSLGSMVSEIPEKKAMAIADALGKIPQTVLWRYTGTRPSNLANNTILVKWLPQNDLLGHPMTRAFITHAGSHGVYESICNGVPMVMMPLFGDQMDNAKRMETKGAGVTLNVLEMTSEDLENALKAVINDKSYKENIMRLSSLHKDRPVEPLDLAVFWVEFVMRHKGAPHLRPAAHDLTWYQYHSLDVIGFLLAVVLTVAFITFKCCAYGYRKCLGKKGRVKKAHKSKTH
Protocol: as §2

[3] = test system: UGT enzymes of human liver microsomes; experiment: Inhibition of labetalol glucuronidation (LG1, LG2) in human liver microsomes; type: biochemical; conditions: labetalol 50 μM
[4] = test system: UGT enzymes of human liver microsomes; experiment: Inhibition of estradiol (E2) glucuronidation in human liver microsomes; type: biochemical; conditions: E2 50 μM, inhibitor 10 μM
Excerpt: as §1

[5] = test system: UGT enzymes of human liver microsomes; experiment: Inhibition of 2ME2 glucuronidation (MG1, MG2) in human liver microsomes; type: biochemical; conditions: liver 062101, 2ME2 50 μM
Excerpt: as §1

[6] = inhibitor 500 μM, 7-HFC 50 μM, 15 min
[7] = inhibitor 200 μM, 7-HFC 50 μM, 15 min
[8] = Supersomes with recombinant human UGT1A3, pH 7.5, probe raloxifene 50 μM, formation of glucuronide G1, % of control metabolism, raloxifene G1, UGT1A3
[9] = Supersomes with recombinant human UGT1A3, pH 7.5, probe raloxifene 50 μM, formation of glucuronide G2, % of control metabolism, raloxifene G2, UGT1A3
[10] = recombinant UGT1A3 Supersomes, pH 7.5, probe raloxifene 50 μM (formation of glucuronide G1), Inhibition of raloxifene glucuronidation, G1, UGT1A3, G1, raloxifene 50 μM, 250 μg/ml Supersomes, 1 mM UDPGA, 15 min
[11] = recombinant UGT1A3 Supersomes, pH 7.5, probe raloxifene 50 μM (formation of glucuronide G2), Inhibition of raloxifene glucuronidation, G2, UGT1A3, G2, raloxifene 50 μM, 250 μg/ml Supersomes, 1 mM UDPGA, 15 min

## C=CCc1ccc(O)c(OC)c1 [Eugenol]
[1]; [6]
  % of control metabolism (SD, n = 3), 7-HFC glucuronidation: 63 (1) %
[2]; inhibitor 50 μM
  residual metabolism (% of control), E2-17-β-D-glucuronide: obs, 94 (5) %
[2]; inhibitor 100 μM
  residual metabolism (% of control), E2-17-β-D-glucuronide: obs, 89 (6) %
UGT1A1; pH 7.5, % of control metabolism, raloxifene G1, UGT1A1, inhibitor 50 μM
  activity at 15 min, 50 µM: 85%
UGT1A1; pH 7.5, % of control metabolism, raloxifene G2, UGT1A1, inhibitor 50 μM
  activity at 15 min, 50 µM: 79%
UGT1A1; pH 7.5, Inhibition of raloxifene glucuronidation, G1, UGT1A1, G1, inhibitor 50 μM, raloxifene 50 μM, 250 μg/ml Supersomes, 1 mM UDPGA, 15 min
  activity at 15 min, 50 µM: 85%
UGT1A1; pH 7.5, Inhibition of raloxifene glucuronidation, G2, UGT1A1, G2, inhibitor 50 μM, raloxifene 50 μM, 250 μg/ml Supersomes, 1 mM UDPGA, 15 min
  activity at 15 min, 50 µM: 79%
UGT1A10; raloxifene G1
  activity at 15 min, 50 µM: 85%
UGT1A10; raloxifene G2
  activity at 15 min, 50 µM: 81%
UGT1A3; UGT1A3
  inhibition of raloxifene glucuronidation, in words: ineffective

## CC(CCc1ccccc1)NCC(O)c1ccc(O)c(C(N)=O)c1 (centres unmarked) [Labetalol, labetalol]
[1]; [6]
  % of control metabolism (SD, n = 3), 7-HFC glucuronidation: 95 (2) %

## CCCOC(=O)c1cc(O)c(O)c(O)c1 [Propyl gallate]
[1]; [7]
  % of control metabolism (SD, n = 3), 7-HFC glucuronidation: 71 (1) %
[1]; [6]
  % of control metabolism (SD, n = 3), 7-HFC glucuronidation: 63 (0), % and 59 (1) %
UGT1A1; pH 7.5, % of control metabolism, raloxifene G1
  activity at 15 min, 50 µM: 72%
UGT1A1; pH 7.5, % of control metabolism, raloxifene G2
  activity at 15 min, 50 µM: 73%
UGT1A1; pH 7.5, Inhibition of raloxifene glucuronidation, G1, UGT1A1
  activity at 15 min, 50 µM: 72%
UGT1A1; pH 7.5, Inhibition of raloxifene glucuronidation, G2, UGT1A1
  activity at 15 min, 50 µM: 73%
UGT1A10; raloxifene G1
  activity at 15 min, 50 µM: 80%
UGT1A10; raloxifene G2
  activity at 15 min, 50 µM: 72%

## O=C(OC[C@H]1O[C@@H](OC(=O)c2cc(O)c(O)c(OC(=O)c3cc(O)c(O)c(O)c3)c2)[C@H](OC(=O)c2cc(O)c(O)c(OC(=O)c3cc(O)c(O)c(O)c3)c2)[C@@H](OC(=O)c2cc(O)c(O)c(OC(=O)c3cc(O)c(O)c(O)c3)c2)[C@@H]1OC(=O)c1cc(O)c(O)c(OC(=O)c2cc(O)c(O)c(O)c2)c1)c1cc(O)c(O)c(OC(=O)c2cc(O)c(O)c(O)c2)c1 [Tannic acid]
[1]; 7-HFC 50 μM, 1 mM UDPGA, 15 min
  pIC50: 5.00
[1]; inhibitor 25 μM
  percentage of control metabolism, 7-HFC glucuronidation: 14 (1) % and 18 (0) %
[1]; inhibitor 25 μM, 7-HFC 50 μM, 15 min
  % of control metabolism (SD, n = 3), 7-HFC glucuronidation: 14 (1), % and 18 (0) %
[1]; inhibitor 50 μM
  percentage of control metabolism, 7-HFC glucuronidation: 2 (0) %
[1]; inhibitor 50 μM, 7-HFC 50 μM, 15 min
  % of control metabolism (SD, n = 3), 7-HFC glucuronidation: 2 (0) %
[1]; inhibitor 100 μM
  percentage of control metabolism, 7-HFC glucuronidation: 0 (0) %
[1]; inhibitor 100 μM, 7-HFC 50 μM, 15 min
  % of control metabolism (SD, n = 3), 7-HFC glucuronidation: 0 (0) %
[1]; inhibitor 200 μM
  percentage of control metabolism, 7-HFC glucuronidation: 0 (0) %
[1]; [7]
  % of control metabolism (SD, n = 3), 7-HFC glucuronidation: 0 (0) %
[1]; inhibitor 500 μM
  percentage of control metabolism, 7-HFC glucuronidation: 0 (0) %
[1]; [6]
  % of control metabolism (SD, n = 3), 7-HFC glucuronidation: 0 (0) %
[3]; inhibitor 10 μM
  residual metabolism (percentage of control), labetalol LG1: 91 (2) %
  residual metabolism (percentage of control), labetalol LG2: 88 (4) %
[3]; inhibitor 25 μM
  residual metabolism (percentage of control), labetalol LG1: 56 (2) %
  residual metabolism (percentage of control), labetalol LG2: 51 (6) %
[4]; liver 032101
  residual metabolism (% of control), E2-3-β-D-glucuronide: 14 (1) %
  residual metabolism (% of control), E2-17-β-D-glucuronide: 75 (3) %
[4]; liver 062101
  residual metabolism (% of control), E2-3-β-D-glucuronide: 26 (4) %
  residual metabolism (% of control), E2-17-β-D-glucuronide: 72 (3) %
[5]; inhibitor 2 μM
  residual metabolism (% of control), 2ME2 MG1: 62 (2) %
  residual metabolism (% of control), 2ME2 MG2: 105 (3) %
[5]; inhibitor 5 μM
  residual metabolism (% of control), 2ME2 MG1: 39 (0) %
  residual metabolism (% of control), 2ME2 MG2: 91 (5) %
[5]; inhibitor 10 μM
  residual metabolism (% of control), 2ME2 MG1: 24 (1) %
  residual metabolism (% of control), 2ME2 MG2: 69 (6) %
UGT1A3; [8]
  activity at 15 min, 10 µM: 48%
  activity at 15 min, 25 µM: 25%
  activity at 15 min, 50 µM: 3%
UGT1A3; [9]
  activity at 15 min, 10 µM: 64%
  activity at 15 min, 25 µM: 38%
  activity at 15 min, 50 µM: 5%
UGT1A3; [10]
  activity at 15 min, 10 µM: 48%
  activity at 15 min, 25 µM: 25%
  activity at 15 min, 50 µM: 3%
UGT1A3; [11]
  activity at 15 min, 10 µM: 64%
  activity at 15 min, 25 µM: 38%
  activity at 15 min, 50 µM: 5%

Source: patent US20030215462A1, “Use of UGT inhibitors to increase bioavailability” (priority 2001, published 2003)
